“And” between values parts separate entries of the source, which are not always exact repeats. Identical values can stand only once. Blank lines part the entries; values can stand above or below the molecule they belong to.
Key:
[1] = test system: CFA-induced cold hypersensitivity of the hind paw; experiment: CFA-induced pain test, cold hypersensitivity (cold plate paw withdrawal latency); type: in vivo; conditions: cold plate 1° C.; for Average PWL Post-Treatment / PWL Change: 1-2 hour pre-treatment; for Average PWL Post-CFA: baseline before dosing
Method: Embodiments of the invention may be efficacious in the treatment of inflammatory pain. Compounds of the invention were tested by the CFA-induced pain test method. Compounds were formulated as solutions in water with various solvents and excipients including dimethyl sulfoxide (DMSO), polyethylene glycol (15)-hydroxystearate (Solutol®, Sigma-Aldrich), caprylocaproyl macrogol-8 glyceride (Labrasol®, Sigma-Aldrich), polysorbate-80 (Tween®-80, Sigma-Aldrich), and polyoxyl 35 castor oil (Cremophor® EL, BASF Corp.); or suspensions in methylcellulose as indicated in Table 3 for oral delivery. Briefly, the hind paw was sensitized to cold temperature (allodynic) by administering 0.1 mL of Complete Freund's Adjuvant (CFA) to the right hind paw. Three days later, the time taken for the animal to lift its CFA-injected paw was recorded compared to its un-injected normal left hind paw. […] To avoid tissue damage the maximum cut-off time was 5 minutes. Animals that were allodynic (average PWL to the first three pain behaviors <150 seconds for the CFA-injected hind paw: ˜≥50% difference between the normal and CFA-injected paw) were included in the study and subsequently randomized across treatment groups. The following day, the animals were dosed orally under blinded conditions. Following the 1-2 hour pre-treatment time, the post-dose PWL readings were again taken. The efficacy of the drug treatment was assessed by comparing the PWL in the drug treatment animals to those animals that receive the vehicle. P values, when indicated, indicate significance compared Vehicle.

[2] = biological target: human TRPA1 (Homo sapiens (Human), UniProt O75762); experiment: In vitro inhibition of human TRPA1, whole cell patch configuration; type: cell-based; conditions: current activation 10 μM AITC, tested concentrations 320 pM to 3.2 μM, read-out: hTRPA1 IC50
Sequence of human TRPA1 (O75762 whole entry, the tested form may be a part): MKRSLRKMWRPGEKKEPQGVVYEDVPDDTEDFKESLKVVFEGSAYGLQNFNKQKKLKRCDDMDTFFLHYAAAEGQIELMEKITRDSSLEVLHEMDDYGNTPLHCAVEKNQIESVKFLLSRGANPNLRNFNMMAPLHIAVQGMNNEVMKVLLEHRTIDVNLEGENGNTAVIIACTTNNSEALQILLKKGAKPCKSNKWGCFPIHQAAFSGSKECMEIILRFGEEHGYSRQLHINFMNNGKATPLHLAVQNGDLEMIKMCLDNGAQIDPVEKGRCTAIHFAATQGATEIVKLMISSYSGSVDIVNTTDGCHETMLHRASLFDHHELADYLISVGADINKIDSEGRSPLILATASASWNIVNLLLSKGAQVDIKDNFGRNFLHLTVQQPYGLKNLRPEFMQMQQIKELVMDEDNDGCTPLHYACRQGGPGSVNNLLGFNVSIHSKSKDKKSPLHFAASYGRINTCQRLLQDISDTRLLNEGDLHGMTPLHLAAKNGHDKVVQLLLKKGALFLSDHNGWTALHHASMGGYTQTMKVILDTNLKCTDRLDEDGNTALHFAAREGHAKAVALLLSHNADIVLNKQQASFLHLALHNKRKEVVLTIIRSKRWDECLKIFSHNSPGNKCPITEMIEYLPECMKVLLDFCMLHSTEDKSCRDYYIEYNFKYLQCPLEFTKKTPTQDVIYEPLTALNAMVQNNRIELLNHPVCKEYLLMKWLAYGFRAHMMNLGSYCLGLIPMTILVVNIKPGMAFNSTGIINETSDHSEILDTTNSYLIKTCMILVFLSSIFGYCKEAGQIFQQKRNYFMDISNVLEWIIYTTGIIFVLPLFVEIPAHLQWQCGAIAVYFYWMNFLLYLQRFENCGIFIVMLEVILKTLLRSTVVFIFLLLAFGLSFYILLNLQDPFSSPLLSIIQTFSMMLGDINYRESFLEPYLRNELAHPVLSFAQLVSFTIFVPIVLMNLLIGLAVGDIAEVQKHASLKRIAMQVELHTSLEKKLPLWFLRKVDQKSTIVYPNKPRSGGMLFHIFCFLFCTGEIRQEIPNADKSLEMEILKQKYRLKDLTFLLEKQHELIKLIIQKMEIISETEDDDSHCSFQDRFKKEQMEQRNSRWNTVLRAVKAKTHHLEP
How it was run: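 Compound antagonism measured from voltage ramps (±100 or ±80 mV, 400 ms, every 4 s from −40 mV), analysed at −80 and 80 mV, or at constant −60 mV. HEPES-buffered NaCl bath, pH 7.4, EGTA or 2 mM Ca2+; temperature set by perfusion, within ±2° C; no junction-potential correction.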

[3] = test system: formalin-induced pain behaviors in the rat; experiment: Formalin-induced pain test (formalin model), duration of pain behaviors; type: in vivo
How it was run: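 Rats dosed orally with vehicle or compound (solutions with DMSO, Solutol, Labrasol, Tween-80, Cremophor EL, or methylcellulose suspensions) one hour before intraplantar injection of 50 μL 3% formalin into hind paw. Duration of pain behaviors counted by blinded observer; Phase I covers 0-5 min; comparison to vehicle.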

[4] = 0.3 mg/kg PO, solution in 4% DMSO, 5% Tween-80, 20% Cremophor EL, and 71% water
[5] = 1 mg/kg PO, solution in 4% DMSO, 5% Tween-80, 20% Cremophor EL, and 71% water
[6] = 3 mg/kg PO, solution in 4% DMSO, 5% Tween-80, 20% Cremophor EL, and 71% water
[7] = group 0.3 mg/kg PO, solution in 4% DMSO, 5% Tween-80, 20% Cremophor EL, and 71% water
[8] = group 1 mg/kg PO, solution in 4% DMSO, 5% Tween-80, 20% Cremophor EL, and 71% water
[9] = group 3 mg/kg PO, solution in 4% DMSO, 5% Tween-80, 20% Cremophor EL, and 71% water
[10] = 1 mg/kg PO one hour prior to formalin, solution in 4% DMSO, 5% Tween-80, 20% Cremophor EL, 71% water
[11] = 3 mg/kg PO one hour prior to formalin, solution in 4% DMSO, 5% Tween-80, 20% Cremophor EL, 71% water
[12] = 10 mg/kg PO one hour prior to formalin, solution in 4% DMSO, 5% Tween-80, 20% Cremophor EL, 71% water
[13] = 1 mg/kg PO, suspension in 0.5% methylcellulose
[14] = 3 mg/kg PO, suspension in 0.5% methylcellulose
[15] = 10 mg/kg PO, suspension in 0.5% methylcellulose
[16] = 1 mg/kg PO one hour prior to formalin, suspension in 0.5% methylcellulose
[17] = 3 mg/kg PO one hour prior to formalin, suspension in 0.5% methylcellulose
[18] = 10 mg/kg PO one hour prior to formalin, suspension in 0.5% methylcellulose
[19] = 1 mg/kg PO, solution in 4% DMSO, 5% Tween-80, 25% Cremophor EL, and 66% water
[20] = 3 mg/kg PO, solution in 4% DMSO, 5% Tween-80, 25% Cremophor EL, and 66% water
[21] = 10 mg/kg PO, solution in 4% DMSO, 5% Tween-80, 25% Cremophor EL, and 66% water
[22] = 1 mg/kg PO one hour prior to formalin, solution in 4% DMSO, 5% Tween-80, 25% Cremophor EL, 66% water
[23] = 1 mg/kg PO one hour prior to formalin, solution in 8% DMSO and 92% Labrasol
[24] = 3 mg/kg PO one hour prior to formalin, solution in 4% DMSO, 5% Tween-80, 25% Cremophor EL, 66% water
[25] = 3 mg/kg PO one hour prior to formalin, solution in 8% DMSO and 92% Labrasol
[26] = 10 mg/kg PO one hour prior to formalin, solution in 4% DMSO, 5% Tween-80, 25% Cremophor EL, 66% water
[27] = 10 mg/kg PO one hour prior to formalin, solution in 8% DMSO and 92% Labrasol
[28] = 30 mg/kg PO one hour prior to formalin, solution in 8% DMSO and 92% Labrasol

IC50 [2]: 3 nM
SMILES: CC(=O)Cn1c(=O)c2c(ncn2[C@@H](C)C(=O)Nc2csc(-c3ccc(N4CC5C(C4)C5(F)F)nc3)n2)n(C)c1=O (stereo partly drawn) [Compound 79, (2S)—N-(2-(6-(6,6-difluoro-3-azabicyclo[3.1.0]hexan-3-yl)pyridin-3-yl)thiazol-4-yl)-2-(3-methyl-2,6-dioxo-1-(2-oxopropyl)-2,3-dihydro-1H-purin-7(6H)-yl)propanamide]
Average PWL Post-Treatment [1, 13]: 140.2 | PWL Change [1, 13]: 38.0 s | Average PWL Post-Treatment [1, 14]: 201.8 | PWL Change [1, 14]: 99.6 s | Average PWL Post-Treatment [1, 15]: 231.5 | PWL Change [1, 15]: 129.3 s | Average PWL Post-CFA ([1]; group 1 mg/kg PO, suspension in 0.5% methylcellulose): 102.2 | Average PWL Post-CFA ([1]; group 3 mg/kg PO, suspension in 0.5% methylcellulose): 102.2 | Average PWL Post-CFA ([1]; group 10 mg/kg PO, suspension in 0.5% methylcellulose): 102.3 | Duration (0-2 Minutes) Average [3, 16]: 86.1 s | Duration (0-5 Minutes) Average [3, 16]: 169.8 s | Duration (0-2 Minutes) Average [3, 17]: 86.5 s | Duration (0-5 Minutes) Average [3, 17]: 151.1 s | Duration (0-2 Minutes) Average [3, 18]: 77.3 s | Duration (0-5 Minutes) Average [3, 18]: 142.5 s

IC50 [2]: 5 nM
SMILES: CC(=O)Cn1c(=O)c2c(ncn2[C@@H](C)C(=O)Nc2cccc(-c3cnc(C)c(C(F)(F)F)c3)n2)n(C)c1=O [Compound 97, (S)-2-(3-methyl-2,6-dioxo-1-(2-oxopropyl)-2,3-dihydro-1H-purin-7(6H)-yl)-N-(6′-methyl-5′-(trifluoromethyl)-[2,3′-bipyridin]-6-yl)propanamide]
Average PWL Post-Treatment [1, 4]: 194.7 | PWL Change [1, 4]: 77.3 s | Average PWL Post-Treatment [1, 5]: 262.7 | PWL Change [1, 5]: 149.8 s | Average PWL Post-Treatment [1, 6]: 260.8 | PWL Change [1, 6]: 157.3 s | Average PWL Post-CFA [1, 7]: 117.3 | Average PWL Post-CFA [1, 8]: 112.9 | Average PWL Post-CFA [1, 9]: 103.5 | Duration (0-2 Minutes) Average [3, 10]: 69.3 s | Duration (0-5 Minutes) Average [3, 10]: 162.4 s | Duration (0-2 Minutes) Average [3, 11]: 78.5 s | Duration (0-5 Minutes) Average [3, 11]: 175.3 s | Duration (0-2 Minutes) Average [3, 12]: 56.8 s | Duration (0-5 Minutes) Average [3, 12]: 185.4 s

IC50 [2]: 15 nM
SMILES: Cc1noc(Cn2c(=O)c3c(ncn3[C@@H](C)C(=O)Nc3cccc(-c4cnc(C(F)(F)F)nc4)n3)n(C)c2=O)n1 [Compound 104, (S)-2-(3-methyl-1-((3-methyl-1,2,4-oxadiazol-5-yl)methyl)-2,6-dioxo-2,3-dihydro-1H-purin-7(6H)-yl)-N-(6-(2-(trifluoromethyl)pyrimidin-5-yl)pyridin-2-yl)propanamide]
Average PWL Post-Treatment [1, 4]: 190.0 | PWL Change [1, 4]: 84.9 s | Average PWL Post-Treatment [1, 5]: 295.1 | PWL Change [1, 5]: 190.9 s | Average PWL Post-Treatment [1, 6]: 281.7 | PWL Change [1, 6]: 176.8 s | Average PWL Post-CFA [1, 7]: 105.1 | Average PWL Post-CFA [1, 8]: 104.2 | Average PWL Post-CFA [1, 9]: 104.9 | Duration (0-2 Minutes) Average [3, 10]: 98.5 s | Duration (0-5 Minutes) Average [3, 10]: 167.9 s | Duration (0-2 Minutes) Average [3, 11]: 70.9 s | Duration (0-5 Minutes) Average [3, 11]: 140.0 s | Duration (0-2 Minutes) Average [3, 12]: 56.6 s | Duration (0-5 Minutes) Average [3, 12]: 128.9 s

Further lines, the molecule ahead of its results:

SMILES: CC(=O)Cn1c(=O)c2c(ncn2[C@@H](C)C(=O)Nc2cncc(-c3cnc(N4CC5C(C4)C5(F)F)nc3)n2)n(C)c1=O (stereo partly drawn) [Compound 74, (2S)—N-(6-(2-(6,6-difluoro-3-azabicyclo[3.1.0]hexan-3-yl)pyrimidin-5-yl)pyrazin-2-yl)-2-(3-methyl-2,6-dioxo-1-(2-oxopropyl)-2,3-dihydro-1H-purin-7(6H)-yl)propanamide]
Average PWL Post-Treatment [1, 4]: 160.9 | PWL Change [1, 4]: 69.9 s | Average PWL Post-Treatment [1, 5]: 271.3 | PWL Change [1, 5]: 181.0 s | Average PWL Post-Treatment [1, 6]: 273.2 | PWL Change [1, 6]: 182.3 s | Average PWL Post-CFA [1, 7]: 91.1 | Average PWL Post-CFA [1, 8]: 90.4 | Average PWL Post-CFA [1, 9]: 90.9 | IC50 [2]: 6 nM | Duration (0-2 Minutes) Average [3, 10]: 94.8 s | Duration (0-5 Minutes) Average [3, 10]: 169.0 s | Duration (0-2 Minutes) Average [3, 11]: 78.3 s | Duration (0-5 Minutes) Average [3, 11]: 172.9 s | Duration (0-2 Minutes) Average [3, 12]: 62.3 s | Duration (0-5 Minutes) Average [3, 12]: 152.6 s

SMILES: CC(=O)Cn1c(=O)c2c(ncn2[C@@H](C)C(=O)Nc2csc(-c3cnc(N4CC5CC5C4)nc3)n2)n(C)c1=O (stereo partly drawn) [Compound 153, (2S)—N-(2-(2-(3-azabicyclo[3.1.0]hexan-3-yl)pyrimidin-5-yl)thiazol-4-yl)-2-(3-methyl-2,6-dioxo-1-(2-oxopropyl)-2,3-dihydro-1H-purin-7(6H)-yl)propanamide]
Average PWL Post-Treatment [1, 19]: 178.1 | PWL Change [1, 19]: 85.6 s | Average PWL Post-Treatment [1, 20]: 223.6 | PWL Change [1, 20]: 130.8 s | Average PWL Post-Treatment [1, 21]: 247.1 | PWL Change [1, 21]: 154.3 s | Average PWL Post-CFA ([1]; group 1 mg/kg PO, solution in 4% DMSO, 5% Tween-80, 25% Cremophor EL, and 66% water): 92.5 | Average PWL Post-CFA ([1]; group 3 mg/kg PO, solution in 4% DMSO, 5% Tween-80, 25% Cremophor EL, and 66% water): 92.8 | Average PWL Post-CFA ([1]; group 10 mg/kg PO, solution in 4% DMSO, 5% Tween-80, 25% Cremophor EL, and 66% water): 92.7 | IC50 [2]: 2 nM | Duration (0-2 Minutes) Average [3, 22]: 71.4 s | Duration (0-5 Minutes) Average [3, 22]: 164.6 s | Duration (0-2 Minutes) Average [3, 23]: 84.5 s | Duration (0-5 Minutes) Average [3, 23]: 172.5 s | Duration (0-2 Minutes) Average [3, 24]: 81.5 s | Duration (0-5 Minutes) Average [3, 24]: 216.9 s | Duration (0-2 Minutes) Average [3, 25]: 86.4 s | Duration (0-5 Minutes) Average [3, 25]: 198.8 s | Duration (0-2 Minutes) Average [3, 26]: 50.1 s | Duration (0-5 Minutes) Average [3, 26]: 160.3 s | Duration (0-2 Minutes) Average [3, 27]: 87.9 s | Duration (0-5 Minutes) Average [3, 27]: 214.6 s | Duration (0-2 Minutes) Average [3, 28]: 31.9 s and 52.8 s | Duration (0-5 Minutes) Average [3, 28]: 173.1 s and 173.4 s
